EC50 data for 14 compounds are collected here from ChEMBL document CHEMBL1287642, “Synthesis, antiviral activity and cytotoxicity evaluation of Schiff bases of some 2-phenyl quinazoline-4(3)H-ones” (Eur J Med Chem, 2010).

The test relates to Vaccinia virus. The experiment in a line: Antiviral activity against Vaccinia virus infected in human HEL cells assessed as protection against virus-induced cytopathogenicity after 2 days. It counts as functional, organism-based. To be noted: Orthopoxvirus vaccinia, 48 h.

In brackets after ≈: the same amount, converted by molar mass.

With `O=c1c2ccccc2nc(-c2ccccc2)n1/N=C/c1ccccc1O`, the EC50 amounted to 0.8 µg/mL (≈ 2.34 µM). For `O=c1c2ccccc2nc(-c2ccccc2)n1/N=C/c1cccc([N+](=O)[O-])c1` the value was > 20 µg/mL; for `COc1ccc(/C=N/n2c(-c3ccccc3)nc3ccccc3c2=O)cc1`, 9 µg/mL (≈ 25.3 µM).

As for `O=c1c2ccccc2nc(-c2ccccc2)n1/N=C/c1ccccc1`, the EC50 was determined as 9 µg/mL (≈ 27.7 µM). The value for `O=c1c2ccccc2nc(-c2ccccc2)n1/N=C/c1ccc(O)cc1` was 12 µg/mL (≈ 35.2 µM); that for `C/C(=N\n1c(-c2ccccc2)nc2ccccc2c1=O)c1ccccc1` was > 100 µg/mL. The value for `C/C(=N\n1c(-c2ccccc2)nc2ccccc2c1=O)c1ccc(O)cc1` was > 100 µg/mL; that for `O=c1c2ccccc2nc(-c2ccccc2)n1/N=C/c1ccc(Cl)cc1` was 20 µg/mL (≈ 55.6 µM).

As for `COc1ccc(/C=N/n2c(-c3ccccc3)nc3ccccc3c2=O)cc1O`, the EC50 was 20 µg/mL (≈ 53.9 µM). The value for `COc1ccccc1/C=N/n1c(-c2ccccc2)nc2ccccc2c1=O` was > 20 µg/mL; that for `O=c1[nH]c(=O)n([C@H]2C[C@H](O)[C@@H](CO)O2)cc1/C=C/Br` [BRIVUDINE] was 4 µg/mL (≈ 12 µM); that for `Nc1ccn(C[C@@H](CO)OCP(=O)(O)O)c(=O)n1.O.O` [CIDOFOVIR] was 8 µg/mL. For `Nc1nc2c(ncn2COC(CO)CO)c(=O)[nH]1` [GANCICLOVIR], the EC50 is > 100 µg/mL. For `NC(=O)c1ncn([C@@H]2O[C@H](CO)[C@@H](O)[C@H]2O)n1` [RIBAVIRIN], the EC50 was > 250 µg/mL.
